Literature values, collected in patent US20050065128A1, “2-alkylidene-19-nor-vitamin D derivatives for the treatment of hypogonadism or andropause” (Pfizer Inc, priority 2003, published 2005).
Like-named read-outs stand apart in the source and are kept apart here.

Assays:
[1] = system: Intestinal Calcium Transport; details: intraperitoneal, male weanling rats on vitamin D-deficient low-calcium diet, 24 h after last dose, mean ± SEM
[2] = system: Serum Calcium (Bone Calcium Mobilization); details: for Serum Calcium (mg/100 ml): intraperitoneal, male weanling rats on vitamin D-deficient low-calcium diet, 24 h after last dose, mean ± SEM; for activity on bone calcium mobilization (serum calcium) relative to 1,25-(OH)2D3 (native hormone): chronic 7-day dosing in rats, fold of the native hormone
HL-60 cells = details: method of Ostrem et al.

Compound	Intestinal Calcium Transport (S/M) ([1]; 130 pmol/day for 7 days)	Intestinal Calcium Transport (S/M) ([1]; 260 pmol/day for 7 days)	Serum Calcium (mg/100 ml) ([2]; 130 pmol/day for 7 days)	Serum Calcium (mg/100 ml) ([2]; 260 pmol/day for 7 days)	activity on bone calcium mobilization (serum calcium) relative to 1,25-(OH)2D3 (native hormone) [2]	inducing differentiation of HL-60 cells to the monocyte (HL-60 cells)
C=C1[C@H](O)CC(=C/C=C2\CCC[C@]3(C)[C@@H]([C@H](C)CCCC(C)(C)O)CC[C@@H]23)C[C@H]1O [2-Methylene-19-Nor-1,25-(OH)2D3, 1α,25-dihydroxy-2-methylene-19-nor-vitamin D3]	no intestinal calcium transport activity	no intestinal calcium transport activity	extremely strong bone calcium mobilization	extremely strong bone calcium mobilization	10-100 times	activity similar to 1,25-(OH)2D3
C=C1[C@H](O)CC(=C/C=C2\CCC[C@]3(C)[C@@H]([C@@H](C)CCCC(C)(C)O)CC[C@@H]23)C[C@H]1O [2-Methylene-19-Nor-20S-1,25-(OH)2D3, (20S)-1α,25-dihydroxy-2-methylene-19-nor-vitamin D3]	no significant change	no significant change			at least 10 times	extremely potent
